# Read-outs that look alike come from different tables or passages of the source.
# Assays:
# [1] = target: human KDR protein in HEK-293 cells (Homo sapiens (Human), UniProt P35968); test: KDR Cell Assay (phospho-KDR in HEK-293 cells expressing inducible KDR); assay type: cell-based; settings: pKDR Cell HEK 10% FBS IC50, HEK-293 cells expressing inducible KDR, VEGF stimulated
# How it was run: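 HEK-293 cells with inducible human KDR were treated with compound for 1 h in DMEM (0.25% DMSO final), then lysed. Phospho-KDR was quantified by Meso Scale immunoassay, expressed as percent of control, and IC50 taken where a 4-parameter logistic fit crossed 50 POC.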
# [2] = target: N-terminal GST tagged recombinant human RET cytoplasmic domain (aa 658-end), wild type RET kinase (Homo sapiens (Human), UniProt P07949); test: RET Enzyme Assay (HTRF KinEASE-TK), wild type RET; assay type: biochemical; settings: wild type RET, 1 mM ATP
# [3] = target: Kif5b-RET fusion protein in HEK-293 cells (Homo sapiens, UniProt P07949); test: cell-based
# [4] = HEK-293 cells expressing Kif5b-RET, read-out: KIF5B-RET pTYR1062 Cell IC50
# [5] = HEK-293 cells expressing Kif5b-RET, phospho-RET(Tyr1062), read-out: KIF5B-RET pTYR1062 Cell IC50
# Kif5b-RET fusion protein in HEK-293 cells, sequence (P07949 29-1114 limits assumed): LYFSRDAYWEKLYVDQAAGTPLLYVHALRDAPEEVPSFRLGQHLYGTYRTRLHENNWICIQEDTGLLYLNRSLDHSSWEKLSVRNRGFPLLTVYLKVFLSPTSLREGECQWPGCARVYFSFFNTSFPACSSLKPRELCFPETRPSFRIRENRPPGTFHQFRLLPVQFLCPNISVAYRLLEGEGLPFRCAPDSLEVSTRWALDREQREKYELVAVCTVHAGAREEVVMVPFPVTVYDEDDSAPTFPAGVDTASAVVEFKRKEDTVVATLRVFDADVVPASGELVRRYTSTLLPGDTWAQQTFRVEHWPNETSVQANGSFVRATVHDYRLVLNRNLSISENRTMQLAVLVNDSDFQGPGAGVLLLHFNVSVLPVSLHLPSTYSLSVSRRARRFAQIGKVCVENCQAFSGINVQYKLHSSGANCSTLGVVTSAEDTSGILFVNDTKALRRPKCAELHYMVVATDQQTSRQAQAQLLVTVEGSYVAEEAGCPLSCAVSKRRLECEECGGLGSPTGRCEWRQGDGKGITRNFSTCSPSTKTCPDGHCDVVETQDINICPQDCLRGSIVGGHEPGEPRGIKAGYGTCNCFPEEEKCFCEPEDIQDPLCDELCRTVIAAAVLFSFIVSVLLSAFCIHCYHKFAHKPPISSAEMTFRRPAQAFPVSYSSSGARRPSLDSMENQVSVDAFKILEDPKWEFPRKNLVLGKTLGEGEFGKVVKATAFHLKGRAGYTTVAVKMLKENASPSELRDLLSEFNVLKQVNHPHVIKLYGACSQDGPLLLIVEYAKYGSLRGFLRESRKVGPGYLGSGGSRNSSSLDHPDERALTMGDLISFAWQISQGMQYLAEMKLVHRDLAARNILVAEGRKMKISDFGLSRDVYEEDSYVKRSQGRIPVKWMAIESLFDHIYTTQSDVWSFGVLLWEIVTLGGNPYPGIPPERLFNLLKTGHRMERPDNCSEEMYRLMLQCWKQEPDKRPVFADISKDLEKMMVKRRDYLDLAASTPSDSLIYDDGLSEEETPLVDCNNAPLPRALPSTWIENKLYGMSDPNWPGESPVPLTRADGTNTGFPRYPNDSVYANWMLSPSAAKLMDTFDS
# N-terminal GST tagged recombinant human RET cytoplasmic domain (aa 658-end), wild type RET kinase, sequence (P07949 658-1114): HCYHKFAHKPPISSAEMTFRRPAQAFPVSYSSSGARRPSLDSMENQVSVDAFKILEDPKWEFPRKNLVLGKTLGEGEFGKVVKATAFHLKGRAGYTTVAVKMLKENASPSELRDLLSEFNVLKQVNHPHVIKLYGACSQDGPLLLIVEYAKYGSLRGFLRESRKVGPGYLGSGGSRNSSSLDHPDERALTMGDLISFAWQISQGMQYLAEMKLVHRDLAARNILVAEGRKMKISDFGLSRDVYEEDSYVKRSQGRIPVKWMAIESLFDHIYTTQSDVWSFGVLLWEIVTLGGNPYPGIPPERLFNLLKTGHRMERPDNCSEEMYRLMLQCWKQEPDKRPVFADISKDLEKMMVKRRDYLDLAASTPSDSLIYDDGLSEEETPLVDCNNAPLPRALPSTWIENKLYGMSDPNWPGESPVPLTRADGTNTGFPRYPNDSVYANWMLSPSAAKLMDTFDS
# human KDR protein in HEK-293 cells, sequence (P35968 20-1356): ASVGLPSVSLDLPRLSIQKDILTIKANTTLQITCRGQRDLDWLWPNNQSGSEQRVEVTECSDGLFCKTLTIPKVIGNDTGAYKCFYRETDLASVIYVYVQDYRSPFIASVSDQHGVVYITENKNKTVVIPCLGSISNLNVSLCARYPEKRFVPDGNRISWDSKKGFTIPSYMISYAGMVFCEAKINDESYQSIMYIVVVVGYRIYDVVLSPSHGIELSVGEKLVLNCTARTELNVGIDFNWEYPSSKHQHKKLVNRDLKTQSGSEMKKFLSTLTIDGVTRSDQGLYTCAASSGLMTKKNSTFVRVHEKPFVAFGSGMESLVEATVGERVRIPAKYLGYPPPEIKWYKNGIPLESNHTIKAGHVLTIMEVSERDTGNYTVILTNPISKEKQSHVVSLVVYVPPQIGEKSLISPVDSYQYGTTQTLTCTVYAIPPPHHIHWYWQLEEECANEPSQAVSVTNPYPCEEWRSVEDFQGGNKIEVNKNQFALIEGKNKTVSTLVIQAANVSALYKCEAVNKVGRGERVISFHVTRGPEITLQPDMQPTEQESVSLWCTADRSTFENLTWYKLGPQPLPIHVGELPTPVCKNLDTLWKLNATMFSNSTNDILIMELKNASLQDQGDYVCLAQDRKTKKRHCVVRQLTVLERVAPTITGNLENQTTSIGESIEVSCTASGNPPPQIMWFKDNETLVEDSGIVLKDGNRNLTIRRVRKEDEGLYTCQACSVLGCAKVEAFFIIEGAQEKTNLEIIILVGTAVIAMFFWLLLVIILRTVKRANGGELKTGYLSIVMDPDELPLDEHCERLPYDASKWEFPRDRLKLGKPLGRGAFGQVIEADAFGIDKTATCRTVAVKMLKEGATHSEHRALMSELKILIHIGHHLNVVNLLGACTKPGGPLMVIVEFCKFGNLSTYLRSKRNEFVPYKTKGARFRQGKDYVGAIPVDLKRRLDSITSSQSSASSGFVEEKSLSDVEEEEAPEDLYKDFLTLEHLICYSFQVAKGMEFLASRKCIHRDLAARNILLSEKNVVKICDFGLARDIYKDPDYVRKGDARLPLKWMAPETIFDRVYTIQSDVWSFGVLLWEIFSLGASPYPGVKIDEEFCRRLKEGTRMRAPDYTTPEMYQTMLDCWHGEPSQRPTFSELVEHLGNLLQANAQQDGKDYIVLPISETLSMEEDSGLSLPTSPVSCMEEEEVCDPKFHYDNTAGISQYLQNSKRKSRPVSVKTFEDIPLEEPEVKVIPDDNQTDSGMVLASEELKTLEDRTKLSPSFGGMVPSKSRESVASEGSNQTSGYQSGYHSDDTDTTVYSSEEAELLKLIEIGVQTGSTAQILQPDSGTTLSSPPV
IC50 [1],IC50 [2],"IC50 [3, 4]",IC50 ([1]; 10% FBS),"IC50 [3, 5]",Compound,IC50 [3]
765 nM,8.5 nM,3.6 nM,–,–,"CC(C)OCCN1CCN(c2ccc(-c3cc(-c4cnn(C)c4)cn4ncc(C#N)c34)cn2)CC1 [Example 392, 4-(6-(4-(2-isopropoxyethyl)piperazin-1-yl)pyridin-3-yl)-6-(1-methyl-1H-pyrazol-4-yl)pyrazolo[1,5-a]pyridin-3-carbonitrile]",–
–,12 nM,–,949 nM,13.6 nM,"CC(C)NC(=O)C1CCN(c2ccc(-c3cc(-c4cnn(C)c4)cn4ncc(C#N)c34)cn2)CC1 [Example 246, 1-(5-(3-cyano-6-(1-methyl-1H-pyrazol-4-yl)pyrazolo[1,5-a]pyridin-4-yl)pyridin-2-yl)-N-isopropylpiperidine-4-carboxamide]",–
–,9.1 nM,–,1090 nM,7.3 nM,"CCC1(C(=O)NCCC(F)(F)F)CCN(c2ccc(-c3cc(-c4cnn(C)c4)cn4ncc(C#N)c34)cn2)CC1 [Example 255, 1-(5-(3-cyano-6-(1-methyl-1H-pyrazol-4-yl)pyrazolo[1,5-a]pyridin-4-yl)pyridin-2-yl)-4-ethyl-N-(3,3,3-trifluoropropyl)piperidine-4-carboxamide]",–
–,14.3 nM,–,659 nM,25.3 nM,"COC1CCN(c2ccc(-c3cc(-c4cnn(C)c4)cn4ncc(C#N)c34)cn2)CC1 [Example 198, 4-(6-(4-methoxypiperidin-1-yl)pyridin-3-yl)-6-(1-methyl-1H-pyrazol-4-yl)pyrazolo[1,5-a]pyridine-3-carbonitrile]",–
2130 nM,21.6 nM,18.2 nM,–,–,"CO[C@H](C)CN1CCN(c2ccc(-c3cc(-c4cnn(C)c4)cn4ncc(C#N)c34)cn2)CC1 [Example 412, (R)-4-(6-(4-(2-methoxypropyl)piperazin-1-yl)pyridin-3-yl)-6-(1-methyl-1H-pyrazol-4-yl)pyrazolo[1,5-a]pyridine-3-carbonitrile]",–
2.2 nM,6.2 nM,2.8 nM,–,–,"CC(C)NS(=O)(=O)C1CCN(c2ccc(-c3cc(-c4cnn(C)c4)cn4ncc(C#N)c34)cn2)CC1 [Example 569, 1-(5-(3-cyano-6-(1-methyl-1H-pyrazol-4-yl)pyrazolo[1,5-a]pyridin-4-yl)pyridin-2-yl)-N-isopropylpiperidine-4-sulfonamide]",–
–,9.1 nM,–,1580 nM,11.9 nM,"CCN(C)C(=O)N1CCN(c2ccc(-c3cc(-c4cnn(C)c4)cn4ncc(C#N)c34)cn2)CC1 [Example 136, 4-(5-(3-cyano-6-(1-methyl-1H-pyrazol-4-yl)pyrazolo[1,5-a]pyridin-4-yl)pyridin-2-yl)-N-ethyl-N-methylpiperazine-1-carboxamide]",–
–,14.3 nM,–,451 nM,22.5 nM,"CN(C)C(=O)NC1CCN(c2ccc(-c3cc(-c4cnn(C)c4)cn4ncc(C#N)c34)cn2)CC1 [Example 186, 3-(1-(5-(3-cyano-6-(1-methyl-1H-pyrazol-4-yl)pyrazolo[1,5-a]pyridin-4-yl)pyridin-2-yl)piperidin-4-yl)-1,1-dimethylurea]",–
1490 nM,5.7 nM,4.1 nM,–,–,"N#Cc1cnn2cc(-c3cn[nH]c3)cc(-c3ccc(N4CCN(Cc5ccccc5)CC4)nc3)c12 [Example 591, 4-(6-(4-benzylpiperazin-1-yl)pyridin-3-yl)-6-(1H-pyrazol-4-yl)pyrazolo[1,5-a]pyridine-3-carbonitrile]",–
–,63.7 nM,–,2390 nM,156 nM,"CN1CCN(c2ccc(-c3cc(-c4cnn(C)c4)cn4ncc(Cl)c34)cn2)CC1 [Example 333, 3-chloro-6-(1-methyl-1H-pyrazol-4-yl)-4-(6-(4-methylpiperazin-1-yl)pyridin-3-yl)pyrazolo[1,5-a]pyridine]",–
–,6.9 nM,–,279 nM,5.6 nM,"C[C@H](NC(=O)C1CCN(c2ccc(-c3cc(-c4cnn(C)c4)cn4ncc(C#N)c34)cn2)CC1)C(F)(F)F [Example 231, (S)-1-(5-(3-cyano-6-(1-methyl-1H-pyrazol-4-yl)pyrazolo[1,5-a]pyridin-4-yl)pyridin-2-yl)-N-(1,1,1-trifluoropropan-2-yl)piperidine-4-carboxamide]",–
877 nM,13.1 nM,19.5 nM,–,–,"COc1ncc(F)cc1CN1CCN(c2ccc(-c3cc(-c4cnn(C)c4)cn4ncc(C#N)c34)cn2)CC1 [Example 457, 4-(6-(4-((5-fluoro-2-methoxypyridin-3-yl)methyl)piperazin-1-yl)pyridin-3-yl)-6-(1-methyl-1H-pyrazol-4-yl)pyrazolo[1,5-a]pyridine-3-carbonitrile]",–
2030 nM,25.2 nM,25.4 nM,–,–,"CO[C@@H](C)CN1CCN(c2ccc(-c3cc(-c4cnn(C)c4)cn4ncc(C#N)c34)cn2)CC1 [Example 415, (S)-4-(6-(4-(2-methoxypropyl)piperazin-1-yl)pyridin-3-yl)-6-(1-methyl-1H-pyrazol-4-yl)pyrazolo[1,5-a]pyridine-3-carbonitrile]",–
–,19.4 nM,–,522 nM,60.7 nM,"CCC(=O)N1CCN(c2ccc(-c3cc(-c4cnn(C)c4)cn4ncc(C#N)c34)cn2)CC1 [Example 67, 6-(1-methyl-1H-pyrazol-4-yl)-4-(6-(4-propionylpiperazin-1-yl)pyridin-3-yl)pyrazolo[1,5-a]pyridine-3-carbonitrile]",–
–,31.8 nM,–,1170 nM,57.1 nM,"CC(C)C(=O)N[C@@H]1CCCN(c2ccc(-c3cc(-c4cnn(C)c4)cn4ncc(C#N)c34)cn2)C1 [Example 226, (R)—N-(1-(5-(3-cyano-6-(1-methyl-1H-pyrazol-4-yl)pyrazolo[1,5-a]pyridin-4-yl)pyridin-2-yl)piperidin-3-yl)isobutyramide]",–
–,5.5 nM,–,320 nM,11.5 nM,"CCNC(=O)N1CCN(c2ccc(-c3cc(-c4cnn(C)c4)cn4ncc(C#N)c34)cn2)CC1 [Example 134, 4-(5-(3-cyano-6-(1-methyl-1H-pyrazol-4-yl)pyrazolo[1,5-a]pyridin-4-yl)pyridin-2-yl)-N-ethylpiperazine-1-carboxamide]",–
–,8.7 nM,–,916 nM,5.8 nM,"COC(C)CNC(=O)C1CCN(c2ccc(-c3cc(-c4cnn(C)c4)cn4ncc(C#N)c34)cn2)CC1 (stereo not drawn) [Example 239, 1-(5-(3-cyano-6-(1-methyl-1H-pyrazol-4-yl)pyrazolo[1,5-a]pyridin-4-yl)pyridin-2-yl)-N-(2-methoxypropyl) piperidine-4-carboxamide]",–
–,11.6 nM,–,555 nM,11.1 nM,"Cn1cc(-c2cc(-c3ccc(N4CCN(C(=O)NC(C)(C)C)CC4)nc3)c3c(C#N)cnn3c2)cn1 [Example 128, N-(tert-butyl)-4-(5-(3-cyano-6-(1-methyl-1H-pyrazol-4-yl)pyrazolo[1,5-a]pyridin-4-yl)pyridin-2-yl)piperazine-1-carboxamide]",–
–,16.2 nM,–,207 nM,47 nM,"Cn1cc(-c2cc(-c3ccc(N4CCN(S(C)(=O)=O)CC4)nc3)c3c(Cl)cnn3c2)cn1 [Example 332, 3-chloro-6-(1-methyl-1H-pyrazol-4-yl)-4-(6-(4-(methylsulfonyl)piperazin-1-yl)pyridin-3-yl)pyrazolo[1,5-a]pyridine]",–
–,7.6 nM,–,928 nM,15.3 nM,"Cn1cc(-c2cc(-c3ccc(N4CCC(NC(=O)OC(C)(C)C)CC4)nc3)c3c(C#N)cnn3c2)cn1 [Example 176, tert-butyl (1-(5-(3-cyano-6-(1-methyl-1H-pyrazol-4-yl)pyrazolo[1,5-a]pyridin-4-yl)pyridin-2-yl)piperidin-4-yl)carbamate]",–
844 nM,10 nM,12.1 nM,–,–,"COc1ncccc1CN1CCN(c2ccc(-c3cc(-c4cnn(C)c4)cn4ncc(C#N)c34)cn2)CC1 [Example 452, 4-(6-(4-((2-methoxypyridin-3-yl)methyl)piperazin-1-yl)pyridin-3-yl)-6-(1-methyl-1H-pyrazol-4-yl)pyrazolo[1,5-a]pyridine-3-carbonitrile]",–
–,30.6 nM,–,229 nM,19.8 nM,"Cn1cc(-c2cc(-c3ccc(N4CCN(C(=O)CN(C(=O)OC(C)(C)C)C(C)(C)C)CC4)nc3)c3c(C#N)cnn3c2)cn1 [Example 18, tert-butyl tert-butyl(2-(4-(5-(3-cyano-6-(1-methyl-1H-pyrazol-4-yl)pyrazolo[1,5-a]pyridin-4-yl)pyridin-2-yl)piperazin-1-yl)-2-oxoethyl)carbamate]",–

Compound,IC50 [1],IC50 [2],"IC50 [3, 4]",IC50 ([1]; 10% FBS),"IC50 [3, 5]",IC50 [3]
"CC(C)n1cc(-c2cc(-c3ccc(N4CCN(Cc5ccccc5)CC4)nc3)c3c(C#N)cnn3c2)cn1 [Example 611, 4-(6-(4-benzylpiperazin-1-yl)pyridin-3-yl)-6-(1-isopropyl-1H-pyrazol-4-yl)pyrazolo[1,5-a]pyridine-3-carbonitrile]",298 nM,11.9 nM,–,–,–,2.5 nM
"Cc1cccc(CN2CCN(c3ccc(-c4cc(-c5cnn(C)c5)cn5ncc(C#N)c45)cn3)CC2)n1 [Example 433, 6-(1-methyl-1H-pyrazol-4-yl)-4-(6-(4-((6-methylpyridin-2-yl)methyl)piperazin-l-yl)pyridine-3-yl)pyrazolo[1,5-a]pyridine-3-carbonitrile]",1080 nM,9.7 nM,–,–,–,6 nM

# Reference: patent US10023570B2 (Array BioPharma, Inc., priority 2015, dated 2018)
